In ChEMBL document CHEMBL1201861, “Genomics of Drug Sensitity in Cancer screening data, Wellcome Trust Sanger Institute”:

Legend:
Test in all cases: cells
[1] = tested on: NUGC-3; format: functional, cell-based, Homo sapiens; conditions: Homo sapiens, NUGC-3;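 note: growth inhibition of human NUGC-3 cells, read out with a cell viability assay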
Description: SANGER: Inhibition of human NUGC-3 cell growth in a cell viability assay.

[2] = tested on: SCC-15; format: functional, cell-based, Homo sapiens; conditions: Homo sapiens, SCC-15;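 note: growth inhibition of SCC-15 cells, read out with a cell viability assay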
Description: SANGER: Inhibition of human SCC-15 cell growth in a cell viability assay.

[3] = tested on: HT; format: functional, cell-based; conditions: Homo sapiens
Description: SANGER: Inhibition of human HT cell growth in a cell viability assay.

[4] = tested on: SW684; format: functional, cell-based, Homo sapiens; conditions: Homo sapiens, SW684;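 note: growth inhibition of human SW684 cells, measured by a cell viability assay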
Description: SANGER: Inhibition of human SW684 cell growth in a cell viability assay.

[5] = tested on: MZ2-MEL; format: functional, cell-based, Homo sapiens; conditions: Homo sapiens, MZ2-MEL;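 note: growth inhibition of MZ2-MEL cells read out with a cell viability assay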
Description: SANGER: Inhibition of human MZ2-MEL cell growth in a cell viability assay.

[6] = tested on: TE-6; format: functional, cell-based, Homo sapiens; conditions: Homo sapiens, TE-6;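 note: growth inhibition of TE-6 cells, read out with a cell viability assay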
Description: SANGER: Inhibition of human TE-6 cell growth in a cell viability assay.

[7] = tested on: NOMO-1; format: functional, cell-based; conditions: Homo sapiens;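 note: growth inhibition of human NOMO-1 cells measured by a cell viability assay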
Description: SANGER: Inhibition of human NOMO-1 cell growth in a cell viability assay.

[8] = tested on: NCI-H2170; format: functional, cell-based, Homo sapiens; conditions: Homo sapiens, NCI-H2170;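 note: cell viability assay measuring growth inhibition of human NCI-H2170 cancer cells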
Description: SANGER: Inhibition of human NCI-H2170 cell growth in a cell viability assay.

[9] = tested on: YAPC; format: functional, cell-based, Homo sapiens; conditions: Homo sapiens, YAPC;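 note: growth inhibition of YAPC cells, measured with a cell viability assay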
Description: SANGER: Inhibition of human YAPC cell growth in a cell viability assay.

[10] = tested on: RPMI-8866; format: functional, cell-based; conditions: Homo sapiens
Description: SANGER: Inhibition of human RPMI-8866 cell growth in a cell viability assay.

[11] = tested on: MS-1; format: functional, cell-based; conditions: Homo sapiens;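 note: growth inhibition of MS-1 cells, read out by cell viability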
Description: SANGER: Inhibition of human MS-1 cell growth in a cell viability assay.

[12] = tested on: LXF-289 cell line; format: functional, cell-based, Homo sapiens; conditions: Homo sapiens, LXF-289
Description: SANGER: Inhibition of human LXF-289 cell growth in a cell viability assay.

[13] = tested on: NCI-H650; format: functional, cell-based, Homo sapiens; conditions: Homo sapiens, NCI-H650;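 note: growth inhibition of NCI-H650 cells, read out by a viability assay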
Description: SANGER: Inhibition of human NCI-H650 cell growth in a cell viability assay.

[14] = tested on: 769-P; format: functional, cell-based, Homo sapiens; conditions: Homo sapiens, 769-P
Description: SANGER: Inhibition of human 769-P cell growth in a cell viability assay.

[15] = tested on: MOLT-16; format: functional, cell-based; conditions: Homo sapiens;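 note: growth inhibition of human MOLT-16 cells, read out with a cell viability assay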
Description: SANGER: Inhibition of human MOLT-16 cell growth in a cell viability assay.

[16] = tested on: FTC-133; format: functional, cell-based, Homo sapiens; conditions: Homo sapiens, FTC-133
[17] = tested on: OVCAR-5; format: functional, cell-based, Homo sapiens; conditions: Homo sapiens, OVCAR-5;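 note: growth inhibition of human OVCAR-5 cells, read out with a cell viability assay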
Description: SANGER: Inhibition of human OVCAR-5 cell growth in a cell viability assay.

[18] = tested on: HT-144; format: functional, cell-based, Homo sapiens; conditions: Homo sapiens, HT-144
Description: SANGER: Inhibition of human HT-144 cell growth in a cell viability assay.

[19] = tested on: HPAF-II; format: functional, cell-based, Homo sapiens; conditions: Homo sapiens, HPAF-II;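 note: growth inhibition of HPAF-II cells, read out with a cell viability assay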
Description: SANGER: Inhibition of human HPAF-II cell growth in a cell viability assay.

[20] = tested on: MPP-89; format: functional, cell-based, Homo sapiens; conditions: Homo sapiens, MPP-89;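 note: growth inhibition of human MPP-89 cells, read out with a cell viability assay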
Description: SANGER: Inhibition of human MPP-89 cell growth in a cell viability assay.

[21] = tested on: HSC-2; format: functional, cell-based, Homo sapiens; conditions: Homo sapiens, HSC-2;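 note: growth inhibition of human HSC-2 cells, read out by a cell viability assay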
Description: SANGER: Inhibition of human HSC-2 cell growth in a cell viability assay.

[22] = tested on: CAL-54; format: functional, cell-based, Homo sapiens; conditions: Homo sapiens, CAL-54;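 note: growth inhibition of CAL-54 cells, read out by a viability measurement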
Description: SANGER: Inhibition of human CAL-54 cell growth in a cell viability assay.

[23] = tested on: SCH; format: functional, cell-based, Homo sapiens; conditions: Homo sapiens, SCH;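 note: growth inhibition of human SCH cells, read out in a cell viability assay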
Description: SANGER: Inhibition of human SCH cell growth in a cell viability assay.

[24] = tested on: J-RT3-T3-5; format: functional, cell-based; conditions: Homo sapiens;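 note: cell viability assay measuring growth inhibition of human J-RT3-T3-5 cells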
Description: SANGER: Inhibition of human J-RT3-T3-5 cell growth in a cell viability assay.

[25] = tested on: NCI-H1092; format: functional, cell-based; conditions: Homo sapiens;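 note: cell growth inhibition measured with a cell viability assay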
Description: SANGER: Inhibition of human NCI-H1092 cell growth in a cell viability assay.

[26] = tested on: BT-20; format: functional, cell-based, Homo sapiens; conditions: Homo sapiens, BT-20;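 note: cell viability assay measuring suppression of growth in human BT-20 cells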
Description: SANGER: Inhibition of human BT-20 cell growth in a cell viability assay.

[27] = tested on: JEG-3; format: functional, cell-based, Homo sapiens; conditions: Homo sapiens, JEG-3;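 note: growth inhibition of human JEG-3 cells, read out with a cell viability assay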
Description: SANGER: Inhibition of human JEG-3 cell growth in a cell viability assay.

[28] = tested on: MSTO-211H; format: functional, cell-based, Homo sapiens; conditions: Homo sapiens, MSTO-211H
Description: SANGER: Inhibition of human MSTO-211H cell growth in a cell viability assay.

[29] = tested on: U-251; format: functional, cell-based, Homo sapiens; conditions: Homo sapiens, U-251;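 note: growth inhibition of human U-251 cells, read out through a cell viability assay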
Description: SANGER: Inhibition of human U251 cell growth in a cell viability assay.

[30] = tested on: BPH-1; format: functional, cell-based, Homo sapiens; conditions: Homo sapiens, BPH-1;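 note: cell viability assay measuring growth inhibition of human BPH-1 cells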
Description: SANGER: Inhibition of human BPH-1 cell growth in a cell viability assay.

[31] = tested on: Calu-6; format: functional, cell-based, Homo sapiens; conditions: Homo sapiens, Calu-6;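 note: growth of human Calu-6 cells, read out by a cell viability assay, IC50 marking inhibition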
Description: SANGER: Inhibition of human Calu-6 cell growth in a cell viability assay.

[32] = tested on: A253 cell line; format: functional, cell-based, Homo sapiens; conditions: Homo sapiens, A253;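 note: growth inhibition of A253 cells, read out with a cell viability assay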
Description: SANGER: Inhibition of human A253 cell growth in a cell viability assay.

[33] = tested on: SW1088; format: functional, cell-based, Homo sapiens; conditions: Homo sapiens, SW1088;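 note: growth inhibition of human SW1088 cells, read out by a cell viability assay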
Description: SANGER: Inhibition of human SW1088 cell growth in a cell viability assay.

[34] = tested on: BXPC-3; format: functional, cell-based, Homo sapiens; conditions: Homo sapiens, BXPC-3;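 note: growth inhibition of human BxPC-3 cells, read out by a cell viability assay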
Description: SANGER: Inhibition of human BxPC-3 cell growth in a cell viability assay.

[35] = tested on: LCLC-97TM1; format: functional, cell-based, Homo sapiens; conditions: Homo sapiens, LCLC-97TM1;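 note: cell viability assay measuring growth inhibition of human LCLC-97TM1 cells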
Description: SANGER: Inhibition of human LCLC-97TM1 cell growth in a cell viability assay.

[36] = tested on: ME-180; format: functional, cell-based; conditions: Homo sapiens;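 note: cell viability assay measuring growth inhibition of ME-180 cells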
Description: SANGER: Inhibition of human ME-180 cell growth in a cell viability assay.

[37] = tested on: CP50-MEL-B; format: functional, cell-based, Homo sapiens; conditions: Homo sapiens, CP50-MEL-B;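 note: growth inhibition of the human cell line, measured with a cell viability read-out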
Description: SANGER: Inhibition of human CP50-MEL-B cell growth in a cell viability assay.

[38] = tested on: VMRC-RCZ; format: functional, cell-based; conditions: Homo sapiens;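 note: growth inhibition measured with a cell viability assay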
Description: SANGER: Inhibition of human VMRC-RCZ cell growth in a cell viability assay.

[39] = tested on: SAOS-2; format: functional, cell-based, Homo sapiens; conditions: Homo sapiens, SAOS-2;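 note: growth inhibition of human Saos-2 cells determined by a cell viability assay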
Description: SANGER: Inhibition of human Saos-2 cell growth in a cell viability assay.

[40] = tested on: NCI-H1838; format: functional, cell-based, Homo sapiens; conditions: Homo sapiens, NCI-H1838;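 note: growth inhibition of NCI-H1838 cells, determined with a cell viability readout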
Description: SANGER: Inhibition of human NCI-H1838 cell growth in a cell viability assay.

[41] = tested on: KYSE-180; format: functional, cell-based, Homo sapiens; conditions: Homo sapiens, KYSE-180;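 note: growth inhibition of KYSE-180 cells, read out with a cell viability assay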
Description: SANGER: Inhibition of human KYSE-180 cell growth in a cell viability assay.

[42] = tested on: SF-539; format: functional, cell-based, Homo sapiens; conditions: Homo sapiens, SF-539;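 note: Read-out is a cell viability assay, with IC50 reflecting inhibition of cell growth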
Description: SANGER: Inhibition of human SF539 cell growth in a cell viability assay.

[43] = tested on: TCC-SUP; format: functional, cell-based, Homo sapiens; conditions: Homo sapiens, TCC-SUP;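 note: growth inhibition of TCC-SUP cells, read out with a cell viability assay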
Description: SANGER: Inhibition of human TCCSUP cell growth in a cell viability assay.

[44] = tested on: TE-5; format: functional, cell-based, Homo sapiens; conditions: Homo sapiens, TE-5;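 note: inhibition of cell growth, read out by a cell viability assay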
Description: SANGER: Inhibition of human TE-5 cell growth in a cell viability assay.

[45] = tested on: TGBC1TKB; format: functional, cell-based, Homo sapiens; conditions: Homo sapiens, TGBC1TKB;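 note: growth inhibition of TGBC1TKB cells, read out by a cell viability assay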
Description: SANGER: Inhibition of human TGBC1TKB cell growth in a cell viability assay.

[46] = tested on: MFE-280; format: functional, cell-based, Homo sapiens; conditions: Homo sapiens, MFE-280;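 note: growth inhibition of MFE-280 cells, determined with a cell viability readout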
Description: SANGER: Inhibition of human MFE-280 cell growth in a cell viability assay.

[47] = tested on: CAPAN-1; format: functional, cell-based, Homo sapiens; conditions: Homo sapiens, CAPAN-1;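 note: growth suppression of CAPAN-1 cells, read out by a cell viability assay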
Description: SANGER: Inhibition of human CAPAN-1 cell growth in a cell viability assay.

[48] = tested on: NCI-H1355; format: functional, cell-based, Homo sapiens; conditions: Homo sapiens, NCI-H1355;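 note: growth inhibition of human NCI-H1355 cells, read out by a cell viability assay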
Description: SANGER: Inhibition of human NCI-H1355 cell growth in a cell viability assay.

[49] = tested on: MHH-NB-11; format: functional, cell-based, Homo sapiens; conditions: Homo sapiens, MHH-NB-11;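 note: growth inhibition of human MHH-NB-11 cells, read out by a cell viability assay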
Description: SANGER: Inhibition of human MHH-NB-11 cell growth in a cell viability assay.

[50] = tested on: NKM-1; format: functional, cell-based; conditions: Homo sapiens;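 note: growth inhibition of NKM-1 cells, read out with a cell viability assay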
Description: SANGER: Inhibition of human NKM-1 cell growth in a cell viability assay.

[51] = tested on: SK-UT-1; format: functional, cell-based, Homo sapiens; conditions: Homo sapiens, SK-UT-1;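 note: growth inhibition of SK-UT-1 cells, measured by a cell viability assay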
Description: SANGER: Inhibition of human SK-UT-1 cell growth in a cell viability assay.

COc1cc(F)c(F)c(Nc2ccc(I)cc2F)c1NS(=O)(=O)C1(CC(O)CO)CC1 (stereo unspecified)
IC50 [1]: 4.34 µM
IC50 [2]: > 5 µM
IC50 [3]: > 5 µM
IC50 [4]: > 5 µM
IC50 [5]: 0.319 µM
IC50 [6]: > 5 µM
IC50 [7]: 0.137 µM
IC50 [8]: > 5 µM
IC50 [9]: > 5 µM
IC50 [10]: > 5 µM
IC50 [11]: > 5 µM
IC50 [12]: 3.54 µM
IC50 [13]: > 5 µM
IC50 [14]: > 5 µM
IC50 [15]: > 5 µM
IC50 [16]: 4.55 µM
IC50 [17]: 0.234 µM
IC50 [18]: 0.049 µM
IC50 [19]: 1.02 µM
IC50 [20]: > 5 µM
IC50 [21]: > 5 µM
IC50 [22]: > 5 µM
IC50 [23]: > 5 µM
IC50 [24]: > 5 µM
IC50 [25]: > 5 µM
IC50 [26]: > 5 µM
IC50 [27]: > 5 µM
IC50 [28]: 3.08 µM
IC50 [29]: > 5 µM
IC50 [30]: 0.135 µM
IC50 [31]: > 5 µM
IC50 [32]: 3.32 µM
IC50 [33]: > 5 µM
IC50 [34]: 1.6 µM
IC50 [35]: 0.279 µM
IC50 [36]: 1.75 µM
IC50 [37]: 0.0215 µM
IC50 [38]: > 5 µM
IC50 [39]: > 5 µM
IC50 [40]: > 5 µM
IC50 [41]: > 5 µM
IC50 [42]: 2.21 µM
IC50 [43]: > 5 µM
IC50 [44]: 4.52 µM
IC50 [45]: > 5 µM
IC50 [46]: > 5 µM
IC50 [47]: 4.15 µM
IC50 [48]: > 5 µM
IC50 [49]: 1.06 µM
IC50 [50]: 2.43 µM

O=C1N=C(NCc2cccs2)S/C1=C\c1ccc2ncccc2c1
IC50 [1]: > 5 µM
IC50 [2]: > 5 µM
IC50 [3]: > 5 µM
IC50 [4]: > 5 µM
IC50 [5]: > 5 µM
IC50 [6]: > 5 µM
IC50 [7]: > 5 µM
IC50 [8]: > 5 µM
IC50 [9]: > 5 µM
IC50 [10]: > 5 µM
IC50 [11]: > 5 µM
IC50 [12]: 4.22 µM
IC50 [13]: > 5 µM
IC50 [14]: > 5 µM
IC50 [15]: > 5 µM
IC50 [16]: > 5 µM
IC50 [17]: > 5 µM
IC50 [18]: > 5 µM
IC50 [19]: > 5 µM
IC50 [20]: > 5 µM
IC50 [21]: > 5 µM
IC50 [51]: > 5 µM
IC50 [22]: > 5 µM
IC50 [23]: > 5 µM
IC50 [24]: > 5 µM
IC50 [25]: > 5 µM
IC50 [26]: > 5 µM
IC50 [27]: > 5 µM
IC50 [28]: > 5 µM
IC50 [29]: 1.64 µM
IC50 [30]: 2.97 µM
IC50 [31]: > 5 µM
IC50 [32]: > 5 µM
IC50 [33]: > 5 µM
IC50 [34]: > 5 µM
IC50 [35]: > 5 µM
IC50 [36]: > 5 µM
IC50 [37]: > 5 µM
IC50 [38]: > 5 µM
IC50 [39]: > 5 µM
IC50 [40]: > 5 µM
IC50 [41]: > 5 µM
IC50 [42]: > 5 µM
IC50 [43]: > 5 µM
IC50 [44]: > 5 µM
IC50 [45]: > 5 µM
IC50 [46]: > 5 µM
IC50 [47]: > 5 µM
IC50 [48]: > 5 µM
IC50 [49]: > 5 µM
IC50 [50]: > 5 µM

COc1ccc(-c2ccc3c(N4CCOC[C@@H]4C)nc(N4CCOC[C@@H]4C)nc3n2)cc1CO [AZD-8055]
IC50 [1]: 0.707 µM
IC50 [2]: 1.17 µM
IC50 [3]: 0.294 µM
IC50 [4]: 1.97 µM
IC50 [5]: 0.409 µM
IC50 [6]: 1.71 µM
IC50 [7]: > 2 µM
IC50 [8]: > 2 µM
IC50 [9]: > 2 µM
IC50 [10]: 0.858 µM
IC50 [11]: > 2 µM
IC50 [12]: 0.25 µM
IC50 [13]: 0.791 µM
IC50 [14]: > 2 µM
IC50 [15]: 0.938 µM
IC50 [16]: > 2 µM
IC50 [17]: 0.429 µM
IC50 [18]: 1.17 µM
IC50 [19]: 0.808 µM
IC50 [20]: 0.469 µM
IC50 [21]: 1.91 µM
IC50 [22]: 1.83 µM
IC50 [23]: 1.03 µM
IC50 [24]: 0.532 µM
IC50 [25]: 1.13 µM
IC50 [26]: 1.22 µM
IC50 [27]: 1.58 µM
IC50 [28]: 0.578 µM
IC50 [29]: > 2 µM
IC50 [30]: 0.884 µM
IC50 [31]: > 2 µM
IC50 [32]: > 2 µM
IC50 [33]: 1.37 µM
IC50 [34]: 0.888 µM
IC50 [35]: 1.41 µM
IC50 [36]: 0.147 µM
IC50 [37]: 0.884 µM
IC50 [38]: 0.785 µM
IC50 [39]: 1.82 µM
IC50 [40]: > 2 µM
IC50 [41]: 1.11 µM
IC50 [42]: 1.58 µM
IC50 [43]: 1.47 µM
IC50 [44]: 0.684 µM
IC50 [45]: 1.33 µM
IC50 [46]: 0.43 µM
IC50 [47]: > 2 µM
IC50 [48]: 0.539 µM
IC50 [49]: > 2 µM
IC50 [50]: 0.2 µM
